Data as given in US8889878B2, “Haloalky-substituted amides as insecticides and acaricides” (Bayer CropScience AG, priority 2009, dated 2014).

Key:
[1] = system: mustard beetle (Phaedon cochleariae); assay: Phaedon test (PHAECO spray treatment), Example 7; type: in vivo; details: application rate 20 g/ha, china cabbage leaf discs sprayed, after 7 days
Description: Phaedon Test (PHAECO Spray Treatment)
(§1) • Solvent: 78.0 parts by weight of acetone • 1.5 parts by weight of dimethylformamide • Emulsifier: 0.5 part by weight of alkylaryl polyglycol ether
To prepare an active ingredient formulation, 1 part by weight of active ingredient is mixed with the stated amounts of solvent and emulsifier, and the concentrate is diluted with emulsifier-containing water to the desired concentration. Leaf discs from china cabbage (Brassica pekinensis) are sprayed with an active ingredient formulation of the desired concentration and, after drying, populated with larvae of the mustard beetle (Phaedon cochleariae).
After 7 days, the efficacy in % is determined. 100% means that all beetle larvae were killed; 0% means that no beetle larvae were killed.

Boophilus microplus = Boophilus microplus test (BOOPMI injection), Example 11; type: in vivo; details: application rate 20 μg/animal, injected into abdomen, after 7 days
Description: Boophilus microplus Test (BOOPMI Injection) • Solvent: dimethyl sulphoxide To prepare an appropriate active ingredient formulation, 10 mg of active ingredient are mixed with 0.5 ml of solvent and the concentrate is diluted with solvent to the desired concentration. The active ingredient solution is injected into the abdomen (Boophilus microplus), and the animals are transferred to dishes and stored in a climate-controlled room. The efficacy was assessed by the number of fertile eggs laid. After 7 days, the efficacy in % is determined. 100% means that none of the ticks has laid any fertile eggs.

[2] = system: green peach aphid (Myzus persicae); assay: Myzus test (MYZUPE spray treatment), Example 17; type: in vivo; details: china cabbage leaf discs sprayed, after 6 days
Description: Myzus Test (MYZUPE Spray Treatment)
• Solvent: 78 parts by weight of acetone • 1.5 parts by weight of dimethylformamide • Emulsifier: 0.5 part by weight of alkylaryl polyglycol ether
To prepare an appropriate active ingredient formulation, 1 part by weight of active ingredient is mixed with the stated amounts of solvent and emulsifier, and the concentrate is diluted with emulsifier-containing water to the desired concentration. Leaf discs from china cabbage (Brassica pekinensis) infested by all stages of the green peach aphid (Myzus persicae) are sprayed with an active ingredient formulation of the desired concentration.
After 6 days, the efficacy in % is determined. 100% means that all aphids were killed; 0% means that no aphids were killed.

[3] = logP by HPLC on reverse-phase column (EEC Directive 79/831 Annex V.A8); type: physicochemical
Description: The logP values reported in the above Tables and Preparation Examples were determined according to EEC Directive 79/831 Annex V.A8 by HPLC (High Performance Liquid Chromatography) on a reverse-phase column (C18). Temperature 43° C.

[4] = system: red spider mite (Tetranychus urticae); assay: Tetranychus test, OP-resistant (TETRUR spray treatment), Example 8; type: in vivo; details: application rate 20 g/ha, common bean leaf discs sprayed, after 6 days
Description: Tetranychus Test, OP-resistant (TETRUR Spray Treatment)
as §1
To prepare an active ingredient formulation, 1 part by weight of active ingredient is mixed with the stated amounts of solvent and emulsifier, and the concentrate is diluted with emulsifier-containing water to the desired concentration.
Leaf discs from the common bean (Phaseolus vulgaris) infested by all stages of the red spider mite (Tetranychus urticae) are sprayed with an active ingredient formulation of the desired concentration.
After 6 days, the efficacy in % is determined. 100% means that all spider mites were killed; 0% means that no spider mites were killed.

[5] = system: armyworm (Spodoptera frugiperda); assay: Spodoptera frugiperda test (SPODFR spray treatment), Example 15; type: in vivo; details: maize leaf discs sprayed, after 7 days
Method in brief: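 Caterpillars placed on dried, sprayed Zea mays leaf discs; formulation of acetone, dimethylformamide and emulsifier diluted with emulsifier-containing water to test concentration. Percent kill scored on day 7.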

| Compound | efficacy in % [1] | efficacy in % (fertile eggs laid) (Boophilus microplus) | efficacy in % ([2]; application rate 500 g/ha) | logP ([3]; HPLC-MS) | efficacy in % [4] | efficacy in % ([5]; application rate 500 g/ha) | efficacy in % ([5]; application rate 100 g/ha) | efficacy in % ([2]; application rate 100 g/ha) | logP ([3]; HPLC, C18 reverse phase, 43° C., acidic range pH 2.7, calibration with alkan-2-ones) |
| --- | --- | --- | --- | --- | --- | --- | --- | --- | --- |
| O=C(/C=C/c1ccc(C(=O)NCc2ccccn2)c(Cl)c1)NC(c1cccc(C(F)(F)F)c1)C(F)(F)F (centres unmarked) [Ia-21] | 100% | 100% | 100% | HPLC-MS: logP = 2.75; mass | – | – | – | – | – |
| O=C(/C=C/c1ccc(C(=O)NCc2ccccn2)c(C(F)(F)F)c1)NC(c1cccc(C(F)(F)F)c1)C(F)(F)F (centres unmarked) [Ia-36] | – | 100% | – | HPLC-MS: logP = 2.75; mass | 100% | – | – | – | – |
| O=C(/C=C/c1ccc(C(=O)NCCOCC(F)(F)F)c(C(F)(F)F)c1)NC(c1cccc(C(F)(F)F)c1)C(F)(F)F (centres unmarked) [Ia-47] | 100% | – | – | HPLC-MS: logP = 3.58; mass | 90% | 83% | – | – | – |
| O=C(/C=C/c1ccc(C(=O)Nc2ccc(F)cc2)c(C(F)(F)F)c1)NC(c1cccc(C(F)(F)F)c1)C(F)(F)F (centres unmarked) [Ia-48] | 100% | – | – | HPLC-MS: logP = 3.89; mass | 90% | – | – | – | – |
| O=C(/C=C/c1ccc(C(=O)NCc2ccncc2)c(C(F)(F)F)c1)NC(c1cccc(C(F)(F)F)c1)C(F)(F)F (centres unmarked) [Ia-49] | – | – | – | HPLC-MS: logP = 2; mass | 90% | – | – | – | – |
| O=C(/C=C/c1ccc(C(=O)NCc2cccnc2)c(C(F)(F)F)c1)NC(c1cccc(C(F)(F)F)c1)C(F)(F)F (centres unmarked) [Ia-50] | – | – | – | HPLC-MS: logP = 2.23; mass | 100% | – | – | – | – |
| COC(CNC(=O)c1ccc(/C=C/C(=O)NC(c2cccc(C(F)(F)F)c2)C(F)(F)F)cc1C(F)(F)F)OC (centres unmarked) [Ia-51] | 100% | – | – | HPLC-MS: logP = 3.18; mass | 90% | – | – | – | – |
| O=C(/C=C/c1ccc(C(=O)NCC2CCCO2)c(C(F)(F)F)c1)NC(c1cccc(C(F)(F)F)c1)C(F)(F)F (centres unmarked) [Ia-52] | – | – | – | HPLC-MS: logP = 3.27; mass | 100% | – | – | – | – |
| COC(C)(C)NC(=O)c1ccc(/C=C/C(=O)NC(c2cccc(C(F)(F)F)c2)C(F)(F)F)cc1C(F)(F)F (centres unmarked) [Ia-55] | – | – | 90% | HPLC-MS: logP = 3.37; mass | 100% | 83% | – | – | – |
| CC(NC(=O)c1ccc(/C=C/C(=O)NC(c2cccc(C(F)(F)F)c2)C(F)(F)F)cc1C(F)(F)F)C1CC1 (centres unmarked) [Ia-56] | 100% | – | – | HPLC-MS: logP = 3.77; mass | 100% | 83% | – | – | – |
| O=C(/C=C/c1ccc(C(=O)NC2CCC2)c(C(F)(F)F)c1)NC(c1cccc(C(F)(F)F)c1)C(F)(F)F (centres unmarked) [Ia-61] | 100% | – | 80% | HPLC-MS: logP = 3.58; mass | 100% | – | – | – | – |
| CC(C)NC(=O)c1ccc(/C=C/C(=O)NC(c2cccc(C(F)(F)F)c2)C(F)(F)F)cc1C(F)(F)F (centres unmarked) [Ia-62] | 100% | – | 80% | HPLC-MS: logP = 3.41; mass | 100% | – | – | – | – |
| C#CCNC(=O)c1ccc(/C=C/C(=O)NC(c2cccc(C(F)(F)F)c2)C(F)(F)F)cc1C(F)(F)F (centres unmarked) [Ia-63] | 100% | – | 90% | HPLC-MS: logP = 3.36; mass | 80% | – | – | – | – |
| O=C(/C=C/c1ccc(C(=O)NC2CC2F)c(C(F)(F)F)c1)NC(c1cccc(C(F)(F)F)c1)C(F)(F)F (centres unmarked) [Ia-65] | 100% | – | – | HPLC-MS: logP = 3.33; mass | 90% | – | – | – | – |
| O=C(/C=C/c1ccc(C(=O)NCc2ccnc(Cl)c2)c(C(F)(F)F)c1)NC(c1cccc(C(F)(F)F)c1)C(F)(F)F (centres unmarked) [Ia-66] | 100% | – | – | HPLC-MS: logP = 3.41; mass | 90% | – | – | – | – |
| O=C(/C=C/c1ccc(C(=O)N(C2CCOCC2)C2CC2)c(C(F)(F)F)c1)NC(c1cccc(C(F)(F)F)c1)C(F)(F)F (centres unmarked) [Ia-67] | 100% | – | 90% | HPLC-MS: logP = 3.77; mass | – | – | – | – | – |

| Compound | efficacy in % [1] | efficacy in % (fertile eggs laid) (Boophilus microplus) | efficacy in % ([2]; application rate 500 g/ha) | logP ([3]; HPLC-MS) | efficacy in % [4] | efficacy in % ([5]; application rate 500 g/ha) | efficacy in % ([5]; application rate 100 g/ha) | efficacy in % ([2]; application rate 100 g/ha) | logP ([3]; HPLC, C18 reverse phase, 43° C., acidic range pH 2.7, calibration with alkan-2-ones) |
| --- | --- | --- | --- | --- | --- | --- | --- | --- | --- |
| CCOC1(NC(=O)c2ccc(/C=C/C(=O)NC(c3cccc(C(F)(F)F)c3)C(F)(F)F)cc2C(F)(F)F)CC1 (centres unmarked) [Ia-68] | 100% | – | – | HPLC-MS: logP = 3.52; mass | 100% | – | – | – | – |
| O=C(/C=C/c1ccc(C(=O)NC2CCOCC2)c(C(F)(F)F)c1)NC(c1cccc(C(F)(F)F)c1)C(F)(F)F (centres unmarked) [Ia-69] | 100% | – | 90% | HPLC-MS: logP = 3.12; mass | 100% | – | – | – | – |
| O=C(/C=C/c1ccc(C(=O)NC2(c3ccccn3)CC2)c(C(F)(F)F)c1)NC(c1cccc(C(F)(F)F)c1)C(F)(F)F (centres unmarked) [Ia-70] | 100% | – | – | HPLC-MS: logP = 3.23; mass | 100% | 83% | – | – | – |
| O=C(/C=C/c1ccc(C(=O)NCc2ccccc2F)c(C(F)(F)F)c1)NC(c1cccc(C(F)(F)F)c1)C(F)(F)F (centres unmarked) [Ia-74] | 100% | – | – | HPLC-MS: logP = 3.77; mass | 90% | – | – | – | – |
| O=C(/C=C/c1ccc(C(=O)NCC2CC2)c(C(F)(F)F)c1)NC(c1cccc(C(F)(F)F)c1)C(F)(F)F (centres unmarked) [Ia-78] | 100% | – | 90% | HPLC-MS: logP = 3.52; mass | 90% | – | – | – | – |
| CC(F)(F)CNC(=O)c1ccc(/C=C/C(=O)NC(c2cccc(C(F)(F)F)c2)C(F)(F)F)cc1C(F)(F)F (centres unmarked) [Ia-79] | 100% | – | 90% | HPLC-MS: logP = 3.65; mass | 90% | – | – | – | – |
| O=C(/C=C/c1ccc(C(=O)NCc2ccc(F)cn2)c(Br)c1)NC(c1cccc(C(F)(F)F)c1)C(F)(F)F (centres unmarked) [Ia-90] | 100% | – | – | HPLC-MS: logP = 3.23 mass | 80% | – | – | – | – |
| O=C(/C=C/c1ccc(C(=O)Nc2ccccn2)c(Br)c1)NC(c1cccc(C(F)(F)F)c1)C(F)(F)F (centres unmarked) [Ia-92] | 100% | – | – | HPLC-MS: logP = 3.47 mass | 80% | – | – | – | – |
| CC(NC(=O)c1ccc(/C=C/C(=O)NC(c2cccc(C(F)(F)F)c2)C(F)(F)F)cc1Br)C1CC1 (centres unmarked) [Ia-93] | 100% | – | – | HPLC-MS: logP = 3.42 mass | 90% | – | – | – | – |
| CN(C(=O)c1ccc(/C=C/C(=O)NC(c2cccc(C(F)(F)F)c2)C(F)(F)F)cc1Br)C1CC1 (centres unmarked) [Ia-95] | 100% | – | – | HPLC-MS: logP = 3.58 mass | 80% | – | – | – | – |
| CCOC1(NC(=O)c2ccc(/C=C/C(=O)NC(c3cccc(C(F)(F)F)c3)C(F)(F)F)cc2Cl)CC1 (centres unmarked) [Ia-96] | 100% | – | – | HPLC-MS: logP = 3.47 mass | 80% | – | – | – | – |
| Cc1cc(/C=C/C(=O)NC(c2cccc(C(F)(F)F)c2)C(F)(F)F)ccc1C(=O)Nc1ccc(F)cc1 (centres unmarked) [Ia-99] | 100% | – | – | HPLC-MS: logP = 3.78 mass | 80% | – | – | – | – |
| O=C(/C=C/c1ccc(C(=O)Nc2ccncc2)c(Cl)c1)NC(c1cccc(C(F)(F)F)c1)C(F)(F)F (centres unmarked) [Ia-113] | 100% | – | – | HPLC-MS: logP = 1.92 mass | 100% | – | – | – | – |
| O=C(/C=C/c1ccc(C(=O)NC(CF)CF)c(C(F)(F)F)c1)NC(c1cccc(C(F)(F)F)c1)C(F)(F)F (centres unmarked) [Ia-143] | – | 100% | – | HPLC-MS: logP = 3.48; mass | – | – | 100% | 100% | – |
| O=C(/C=C/c1ccc(C(=O)NCC(F)F)c(Cl)c1)NC(c1cccc(C(F)(F)F)c1)C(F)(F)F (centres unmarked) [Ia-156] | – | 100% | – | HPLC-MS: logP = 3.34; mass | – | – | 100% | 100% | – |
| O=C(NC(c1cccc(C(F)(F)F)c1)C(F)(F)F)c1cc2cc(Cl)c(C(=O)NC3CC3)cc2[nH]1 (centres unmarked) [Ic-18] | 100% | 100% | – | – | 80% | – | – | – | HPLC-MS: logP = 2.98; mass |
